The structures appear in SMILES notation.

Assay [1] deals with Human immunodeficiency virus type 1 reverse transcriptase (Human immunodeficiency virus 1) (UniProt Q72547). Briefly: In vitro inhibitory activity against human immunodeficiency virus type 1 (HIV-1) reverse transcriptase (RT) at a concentration of 10 ug/mL.
Assay [2] addresses Human immunodeficiency virus type 1 reverse transcriptase (Human immunodeficiency virus 1, UniProt Q72547). Briefly: In vitro inhibitory activity against human immunodeficiency virus type 1 (HIV-1) reverse transcriptase (RT).

As a reminder, the inhibition is how much of the control response was suppressed. As a reminder, the IC50 is the concentration at which inhibition is half-maximal. For `Cc1ccc2c(c1)N(C)C(=O)c1c(C)cc(C)nc1N2C`, in assay [1], the inhibition is 49%. In addition, the half-maximal inhibitory concentration (IC50) in assay [2] was above 1000 nM.

Regarding `CCN1c2cc(N=[N+]=[N-])ccc2N(C)C(=O)c2cccnc21`, the inhibition in assay [1] amounted to 100%. The IC50 in assay [2] came to 140 nM.

With `CCN1c2cc(Cl)c(Cl)cc2N(C)C(=O)c2cccnc21`, in assay [1], the inhibition stood at 100%. In assay [2], this compound had an IC50 of 62 nM.

`CC[C@@H](C)N1c2ncccc2NC(=O)c2cccnc21` came in with an inhibition in assay [1] of 85%. In assay [2], this compound displayed a half-maximal inhibitory concentration (IC50) above 1000 nM.

As to `CCN1c2nc(C)c(C)cc2NC(=O)c2cccnc21`, the inhibition in assay [1] was 100%. In addition, the IC50 in assay [2] is 410 nM.

In assay [1], `CN1C(=O)c2cccnc2N(CCO)c2ccccc21` had an inhibition of 58%. This compound also returned an IC50 in assay [2] above 1000 nM.

As for `CCN1c2ncccc2C(=O)N(C(C)=O)c2cccnc21`, in assay [1], the inhibition was 99%. Also, half-maximal inhibition in assay [2] (IC50) was put at 360 nM.

On to `CCN1c2cc([N+](=O)[O-])ccc2N(C)C(=O)c2cc(Br)cnc21`, for which the inhibition in assay [1] was 95%. Besides, in assay [2], the IC50 amounted to 890 nM.

`CN1C(=O)c2cccnc2N(CC(=O)OC(C)(C)C)c2ccccc21` displayed an inhibition in assay [1] of 87%. Further, in assay [2], the half-maximal inhibitory concentration (IC50) is above 1000 nM.

Consider `CN1C(=O)c2cccnc2N(CCF)c2ccccc21`, for which the inhibition in assay [1] is 97%. Besides, the IC50 in assay [2] was found to be 1000 nM.

`CCN1C(=O)c2cccnc2N(CC)c2ccccc21` registered an inhibition in assay [1] of 99%. The compound further came in with an IC50 in assay [2] of 380 nM.

Take `C#CCN1c2ncccc2C(=O)N(C)c2cccnc21`: the inhibition in assay [1] is 94%. Besides, the half-maximal inhibitory concentration (IC50) in assay [2] was above 1000 nM.

Compound `CCN1C(=O)c2cccc(C)c2N(CC)c2ncccc21` had an inhibition in assay [1] of 99%. Moreover, inhibition in assay [2] was half-maximal at 650 nM (IC50).

`O=C1c2cccnc2Nc2ccccc2N1CCO`: the inhibition in assay [1] was 46%. In addition, in assay [2], the IC50 was above 1000 nM.

`CCN1c2cc(NC(C)=O)ccc2N(C)C(=O)c2cccnc21` yielded an inhibition in assay [1] of 49%. In addition, the IC50 in assay [2] was above 1000 nM.

With `CCN1c2ccccc2N(C)C(=O)c2cccnc21`, the inhibition in assay [1] was 100%. In assay [2], this compound gave an IC50 of 350 nM.

In assay [1], `CN1C(=O)c2ccccc2N(C)c2ncccc21` returned an inhibition of 74%. The IC50 in assay [2] is above 1000 nM.

For the compound `CCN1c2cc(N)ccc2N(C)C(=O)c2cccnc21`, the inhibition in assay [1] is 89%. The same compound came in with an IC50 in assay [2] of 4500 nM.

`CCN1c2ccccc2N(CF)C(=O)c2cccnc21` registered an inhibition in assay [1] of 85%. In addition, the concentration for half-maximal inhibition (IC50) in assay [2] was above 1000 nM.

Compound `CCN1c2ncccc2C(=O)N(C)c2ccc(C)nc21` displayed an inhibition in assay [1] of 100%. This compound registered a half-inhibitory concentration (IC50) in assay [2] of 170 nM.

`CCN1c2cc(C(F)(F)F)cc(Br)c2N(C)C(=O)c2cccnc21` came in with an inhibition in assay [1] of 71%. Moreover, in assay [2], the IC50 was above 1000 nM.

In the case of `C=CCN1C(=O)c2cccnc2N(C(C)=O)c2ccccc21`, in assay [1], the inhibition came out at 83%. The same compound showed a half-maximal inhibitory concentration (IC50) in assay [2] above 1000 nM.

`CC(=O)N1c2ccccc2N(C)C(=O)c2cccnc21`: the inhibition in assay [1] is 72%. Further, in assay [2], the IC50 is above 1000 nM.

Regarding `CCN1c2ncccc2C(=O)N(C)c2cc(C)cnc21`, in assay [1], the inhibition was determined as 100%. The compound further had an IC50 in assay [2] of 760 nM.

As to `CCN1C(=O)c2cccnc2N(C)c2ccccc21`, the inhibition in assay [1] came to 84%. For the same compound, the 50% inhibitory concentration (IC50) in assay [2] was above 1000 nM.

With `CCN1c2ccccc2N(C)C(=O)c2ccc(F)nc21`, the inhibition in assay [1] was 84%. This compound showed an IC50 in assay [2] of 2900 nM.

With `CCN1C(=O)c2ccccc2N(CC)c2ncccc21`, the inhibition in assay [1] came out at 96%. For the same compound, half-maximal inhibition in assay [2] (IC50) was put at 690 nM.

In turn, `CCCN1c2ccccc2N(C)C(=O)c2cccnc21` gave an inhibition in assay [1] of 99%. This compound also returned an IC50 in assay [2] of 230 nM.

`CN1C(=O)c2cccnc2N(CC(=O)O)c2ccccc21` displayed an inhibition in assay [1] of 60%. In assay [2], this compound displayed an IC50 above 1000 nM.

In assay [1], `CCN1c2ccccc2C(=O)N(C)c2ccccc21` gave an inhibition of 80%. In assay [2], the half-maximal inhibitory concentration (IC50) is above 1000 nM.

Compound `CCN1c2ncccc2C(=O)N(C)c2cc(Cl)cnc21` registered an inhibition in assay [1] of 99%. This compound registered an IC50 in assay [2] above 1000 nM.

In turn, `O=C1Nc2cccnc2N(C2CCC2)c2ncccc21` displayed an inhibition in assay [1] of 99%. Half-maximal inhibition in assay [2] (IC50) was put at 430 nM.

Consider `CC(C)N1c2ncccc2NC(=O)c2cccnc21`, for which the inhibition in assay [1] was 99%. The IC50 in assay [2] was found to be 590 nM.

Turning to `CN1C(=O)c2cccnc2N(S(C)(=O)=O)c2ncccc21`, in assay [1], the inhibition amounted to 77%. This compound also returned an IC50 in assay [2] above 1000 nM.

On to `O=C1Nc2cccnc2N(C2CCCC2)c2ncccc21`, for which the inhibition in assay [1] is 94%. Moreover, the IC50 in assay [2] is above 1000 nM.

In assay [1], `O=C1Nc2ccccc2Nc2ncccc21` returned an inhibition of 22%. The compound further gave an IC50 in assay [2] above 1000 nM.

Regarding `Cc1cc(C)c2c(n1)Nc1ccccc1C(=O)N2`, the inhibition in assay [1] is 51%. The same compound came in with an IC50 in assay [2] above 1000 nM.

Regarding `C=CCN1C(=O)c2cccnc2Nc2ccc(Cl)cc21`, the inhibition in assay [1] stood at 79%. In assay [2], this compound displayed a 50% inhibitory concentration (IC50) above 1000 nM.

`CN1C(=O)c2cccnc2N(C(C)(C)C)c2ncccc21`: in assay [1], the inhibition stood at 87%. The compound also yielded a concentration for half-maximal inhibition (IC50) in assay [2] of 11000 nM.

In assay [1], `CCN1c2ncccc2C(=O)Nc2c(O)ccnc21` showed an inhibition of 94%. In assay [2], this compound displayed a half-inhibitory concentration (IC50) above 1000 nM.

Turning to `Cc1cc2c(cc1C)N(CCN(C)C)c1ncccc1C(=O)N2C`, the inhibition in assay [1] worked out at 0%. In assay [2], the half-inhibitory concentration (IC50) is above 1000 nM.

Regarding `CCN1c2ccccc2N(C)C(=O)c2cc(C(F)(F)C(F)(F)F)cnc21`, the inhibition in assay [1] was found to be 5%. Also, in assay [2], the concentration for half-maximal inhibition (IC50) was above 1000 nM.

In assay [1], `CCN1c2cc(C(F)(F)F)ccc2N(C)C(=O)c2cccnc21` displayed an inhibition of 97%. The concentration for half-maximal inhibition (IC50) in assay [2] was determined as 230 nM.

`CCN1c2ccc(C)cc2N(C)C(=O)c2cccnc21` came in with an inhibition in assay [1] of 100%. In assay [2], this compound displayed a concentration for half-maximal inhibition (IC50) of 190 nM.

Turning to `CCN1c2cc(C)c(C)cc2N(C)C(=O)c2cccnc21`, in assay [1], the inhibition was 100%. The midpoint of inhibition in assay [2], the IC50, lay at 40 nM.

Compound `COCCN1C(=O)c2cccnc2Nc2ccccc21` displayed an inhibition in assay [1] of 36%. Besides, in assay [2], the half-maximal inhibitory concentration (IC50) is above 1000 nM.

`C=CCN1C(=O)c2cccnc2Nc2ccccc21`: the inhibition in assay [1] came to 96%. In addition, the IC50 in assay [2] was determined as 1400 nM.

In turn, `CSCN1c2ccccc2N(C)C(=O)c2cccnc21` showed an inhibition in assay [1] of 84%. This compound yielded a concentration for half-maximal inhibition (IC50) in assay [2] of 6600 nM.

`CCN1c2ncccc2NC(=O)c2cc(C)cnc21` had an inhibition in assay [1] of 89%. This compound also came in with an IC50 in assay [2] above 1000 nM.

With `CCN1c2ncccc2C(=O)N(C)c2cc([N+](=O)[O-])cnc21`, in assay [1], the inhibition stood at 64%. Also, the 50% inhibitory concentration (IC50) in assay [2] was above 1000 nM.

In assay [1], `CN1C(=O)c2ccccc2N(C)c2ccccc21` returned an inhibition of 52%. In addition, the IC50 in assay [2] was above 1000 nM.

In assay [1], `CN(C)C(=O)CN1C(=O)c2cccnc2Nc2ccccc21` came in with an inhibition of 24%. In assay [2], the IC50 is above 1000 nM.

For `O=C1Nc2c(CO)ccnc2N(C2CC2)c2ncccc21`, the inhibition in assay [1] was found to be 94%. In assay [2], this compound came in with an IC50 of 3000 nM.

As for `CCN1c2ccc(CNC(=O)C(C)(C)C)cc2N(C)C(=O)c2cccnc21`, the inhibition in assay [1] stood at 15%. In assay [2], this compound displayed an IC50 above 1000 nM.

In turn, `CCN1c2ncccc2C(=O)Nc2c(C)ccnc21` yielded an inhibition in assay [1] of 100%. In addition, the concentration for half-maximal inhibition (IC50) in assay [2] stood at 35 nM.

In turn, `Cc1ccnc2c1NC(=O)c1cccnc1N2C1CC1` displayed an inhibition in assay [1] of 100%.

On to `O=C1Nc2cccnc2N(C2CC2)c2ncccc21`, for which the inhibition in assay [1] was 99%. 450 nM corresponded to half-maximal inhibition in assay [2] (IC50).
